Converted amounts (≈) assume the structure as drawn. Residues, ends and D or L forms follow the SMILES beside them.
Conditions: buffer; pH 7.4; 200.0 µM

| SMILES | solubility kinetic |
| --- | --- |
| CC(=O)c1ccc(NC(=O)N2C[C@H]3C[C@@H](C2)c2cccc(=O)n2C3)cc1 | > 52.7 µg/mL |
| Cc1cccc(N2C(=O)C(O)=C(C(=O)c3cccs3)C2c2ccccc2)n1 (stereo not drawn) | 53 µg/mL (≈ 141 µM) |
| O=C(NC1CCCCCC1)c1ccc[nH]c1=S | > 37.6 µg/mL |
| CCC(C(=O)Nc1ccc(N2CCOCC2)c(S(=O)(=O)Nc2ccccc2OC)c1)c1ccccc1 (stereo not drawn) | 7.4 µg/mL (≈ 14.5 µM) |
| CC(C(=O)NC1CCCCCC1)n1cc([N+](=O)[O-])cn1 (stereo not drawn) | > 42 µg/mL |
| Cc1ccc(C(=O)NCCNC(=O)c2ccccc2)cc1 | > 42.4 µg/mL |
| CCc1ccc(NC(=O)COC(=O)/C=C/c2ccco2)cc1 | 4.8 µg/mL (≈ 16 µM) |
| COc1ccccc1NS(=O)(=O)c1ccc(C(=O)NCc2ccco2)cc1 | 53 µg/mL (≈ 137 µM) |
| Cc1nc(N2CCNCC2)c2c3c(sc2n1)CCCC3 | 26.7 µg/mL (≈ 92.6 µM) |
| O=C(Nc1nccs1)c1ccc(-c2ccc(Cl)cc2)o1 | 1.9 µg/mL (≈ 6.23 µM) |
| Clc1ccc(-c2cn3cc(Cl)ccc3n2)cc1 | < 0.3 µg/mL |
| CC(C)COP(=O)(OCC(C)C)C(O)c1ccc(N(C)C)cc1 (stereo not drawn) | > 51.5 µg/mL |
| O=C(Nc1ccccc1OC(F)(F)F)c1ccc([N+](=O)[O-])cc1 | 6.8 µg/mL (≈ 20.8 µM) |
| O=C(c1cc(F)cc2c1OCOC2)N1CCN(c2ccc(F)cc2)CC1 | > 54.1 µg/mL |
| OCCN1CCN(C(=S)Nc2ccccc2)CC1 | > 39.8 µg/mL |
| O=C(CS(=O)(=O)c1ccccc1)NCc1ccc(Cl)cc1 | 2.7 µg/mL (≈ 8.34 µM) |
| CSc1ncc(CN2CCc3c([nH]c4ccccc34)C2C(C)(C)C)cn1 (stereo not drawn) | 19.5 µg/mL (≈ 53.2 µM) |
| N#Cc1cc2c(nc1SCC(=O)O)CCCCC2 | > 39.3 µg/mL |
| CCOc1ccc2nc(NS(=O)(=O)c3cccs3)sc2c1 | 9.9 µg/mL (≈ 29.1 µM) |
| CCOc1ccc2[nH]c(C)c(CN3CCCCCC3)c(=O)c2c1 | > 47.2 µg/mL |
| O=S(=O)(c1ccc(F)cc1)N1CCc2ccccc21 | 18.9 µg/mL (≈ 68.2 µM) |
| N#Cc1c(-c2ccc3c(c2)OCO3)cc[nH]c1=O | 2.3 µg/mL (≈ 9.57 µM) |
| S=C(NCc1ccco1)N1CCN(C/C=C/c2ccccc2)CC1 | > 51.2 µg/mL |
| Cc1ccc(CN2CCN(C(=O)CC(C)C)CC2)cc1 | 25.1 µg/mL (≈ 91.5 µM) |

| SMILES | solubility kinetic |
| --- | --- |
| O=C(Nc1nc2ccccc2[nH]1)c1ccccc1[N+](=O)[O-] | > 42.3 µg/mL |
| COc1ccc(Nc2nc(N)nc(CN3CCC(C)CC3)n2)cc1 | > 49.3 µg/mL |
| CCCOc1ccc(S(=O)(=O)N2CCOCC2)cc1[N+](=O)[O-] | > 49.6 µg/mL |
| Cc1c(C(=O)N(C)CCn2ccnc2C)oc2c(F)cccc12 | 38.1 µg/mL (≈ 121 µM) |
| CC1(C(=O)Nc2ccc3c(c2)OCO3)CC1(Cl)Cl (stereo not drawn) | > 43.2 µg/mL |
| CN(CCOc1ccccc1)CC(O)COCc1ccccc1F (stereo not drawn) | 46 µg/mL (≈ 138 µM) |
| Cc1c(C(=O)N2CCC2)oc2c(F)cccc12 | 30.3 µg/mL (≈ 130 µM) |
| COc1ccc(NC(=O)c2cccnc2)cc1OCC(C)C | 27.2 µg/mL (≈ 90.6 µM) |
| Cc1cc(C)n2nc(SC(C)C(=O)N(C)C3CCCCC3)nc2n1 (stereo not drawn) | > 52.1 µg/mL |
| CCCN(C(=O)CSc1ncccn1)C1CCS(=O)(=O)C1 (stereo not drawn) | > 49.4 µg/mL |
| CCOC(=O)COc1cc([N+](=O)[O-])cc2cccnc12 | > 41.4 µg/mL |
| CCC(C)NC(=O)C1c2ccccc2Oc2ccccc21 (stereo not drawn) | 1.9 µg/mL (≈ 6.75 µM) |
| O=C(CSc1nc2ccccc2o1)N1CCOCC1 | > 41.7 µg/mL |
| OCCCNC(=S)Nc1ccc(Br)cc1Cl | > 48.5 µg/mL |
| O=c1c2ccccc2nc(-c2ccccc2Cl)n1-c1cccc(O)c1 | > 52.3 µg/mL |
| CC1c2cccn2CCN1S(=O)(=O)c1ccccc1 (stereo not drawn) | 40.3 µg/mL (≈ 146 µM) |
| O=C(c1cc(Br)c(Br)s1)N1CCc2ccccc2C1 | 7 µg/mL (≈ 17.5 µM) |
| CCCc1cc(NCCCO)n2c(nc3ccccc32)c1C#N | 3.3 µg/mL (≈ 10.7 µM) |
| COc1cccc(/C=C/C(=O)c2cccc([N+](=O)[O-])c2)c1 | 2.4 µg/mL (≈ 8.47 µM) |
| CN(Cc1ccc2c(c1)OCCO2)C(=O)CN1C(=O)NC2(CCCCC2)C1=O | 50.2 µg/mL (≈ 130 µM) |
| Cc1cc(C)n2nc(SCC(=O)N3CCCC3)nc2n1 | > 43.7 µg/mL |
| CCn1c(NCCCO)nc2c(c1=O)C(C)(CC)Cc1ccccc1-2 (stereo not drawn) | 47 µg/mL (≈ 138 µM) |
| Cc1cccc([N+](=O)[O-])c1NC(=O)COC(=O)C1CCCO1 (stereo not drawn) | > 46.2 µg/mL |
| O=[N+]([O-])c1cccc(CN2CCCCCC2)c1 | 31.7 µg/mL (≈ 135 µM) |

| SMILES | solubility kinetic |
| --- | --- |
| CCCN1C(=O)N(c2cccc(C)c2)C(C)(O)CC1(C)C (stereo not drawn) | > 43.6 µg/mL |
| O=c1nc(/C=C/c2ccc(Cl)cc2Cl)cc(C(F)(F)F)[nH]1 | 7.3 µg/mL (≈ 21.8 µM) |
| NC(=O)C1Cc2ccccc2CN1S(=O)(=O)c1ccc(Cl)s1 (stereo not drawn) | > 53.5 µg/mL |
| CC(=O)Nc1ccc(CN2CCN(C3CCCC3)C(CCO)C2)cc1 (stereo not drawn) | > 51.8 µg/mL |
| COc1ccc(NC(=O)N2CCCC2C(=O)NC2CCCC2)cc1 (stereo not drawn) | > 49.7 µg/mL |
| O=C(COC(=O)c1ccc([N+](=O)[O-])o1)NCCCc1ccccc1 | > 49.8 µg/mL |
| Cc1ccc(-c2ccc(OC(=O)c3ccc(=O)[nH]c3)c(C)c2)cc1 | < 0.7 µg/mL |
| CCc1cc2c(=O)n(-c3ccccc3)c(SCC(N)=O)nc2s1 | 2.8 µg/mL (≈ 8.11 µM) |
| COc1ccc(/C=C2/NC(=O)CNC2=O)cc1 | > 34.8 µg/mL |
| O=C(O)C1CC(=O)N(c2ccc(OCc3ccc(Br)cc3)cc2)C1 (stereo not drawn) | > 58.5 µg/mL |
| O=C(Nc1ccccc1)Nc1ccc(Oc2cccnc2)nc1 | 20.5 µg/mL (≈ 66.9 µM) |
| CC(NC(=O)c1c(O)c2ccccc2[nH]c1=O)c1ccccc1 (stereo not drawn) | < 0.3 µg/mL |
| CC(C)[C@H](NC(=O)c1ccccc1F)C(=O)OCC(=O)NC1CC1 | 34.3 µg/mL (≈ 102 µM) |
| O=c1nc(SCc2c(F)cccc2Cl)nc(-c2ccccc2)[nH]1 | 4.1 µg/mL (≈ 11.8 µM) |
| O=C1CN(S(=O)(=O)c2ccc(F)cc2)c2ccccc2N1 | > 45.9 µg/mL |
| N#CCNC1CC(=O)N(c2ccc(F)cc2)C1=O (stereo not drawn) | 29.9 µg/mL (≈ 121 µM) |
| CCN(CC)C(C(=O)NC1CCCCC1)c1ccc(C)cc1 (stereo not drawn) | > 45.4 µg/mL |
| Cc1nc2ccsc2c(=O)n1-c1cccc(Cl)c1 | > 41.5 µg/mL |
| Cc1ccc(CN(C)CC(=O)NC(C)c2ccccc2)cc1 (stereo not drawn) | > 44.5 µg/mL |
| O=S1(=O)CC(O)C(N(CCO)C(=S)Nc2ccccc2)C1 (stereo not drawn) | 46.2 µg/mL (≈ 140 µM) |
| Cc1ccc(C)c(N=Cc2c(O)c3ccccc3oc2=O)c1 | 1.6 µg/mL (≈ 5.45 µM) |
| [Br-].c1ccc(-c2c[n+]3c(n2-c2ccccc2)CCC3)cc1 | > 51.2 µg/mL |
| CCC(C)(C)C(=O)Nc1cccc(Cl)c1C | > 36 µg/mL |
| CCNc1nc(-c2cc(C)n(Cc3ccco3)c2C)cs1 | 5.2 µg/mL (≈ 17.3 µM) |

| SMILES | solubility kinetic |
| --- | --- |
| Cl.O[C@@H](c1cc(C(F)(F)F)nc2c(C(F)(F)F)cccc12)[C@H]1CCCCN1 | > 62.2 µg/mL |
| Cc1ccc(S(=O)(=O)N2CCN(C(=O)CC(C)C)CC2)cc1 | > 48.7 µg/mL |
| CCOCCCNC1=C(Cl)C(=O)c2ccccc2C1=O | 31.9 µg/mL (≈ 109 µM) |
| CC(=O)NC(Cc1ccccc1)C(=O)NC(Cc1ccccc1)C(=O)O (stereo not drawn) (Ac-Phe-Phe-OH; configuration not given here) | 52.4 µg/mL (≈ 148 µM) |
| O=S(=O)(NOCc1ccc(Cl)cc1)c1ccc(Cl)cc1 | < 0.7 µg/mL |
| CN1C(=O)/C(=C\c2ccc(N(C)C)cc2)OC1=S | < 0.3 µg/mL |
| O=C(CCN=C1NS(=O)(=O)c2ccccc21)Nc1ccc(F)cc1Cl | > 57.3 µg/mL |
| Cc1cc(Cl)nc(Cl)c1C(=O)NC(=O)NCCC(C)C | 34.7 µg/mL (≈ 109 µM) |
| c1ccc(CN2CCOCCOCCOCCOCC2)cc1 | 43.2 µg/mL (≈ 140 µM) |
| COc1ccc(-c2csc3nc[nH]c(=O)c23)cc1OC | 39.4 µg/mL (≈ 137 µM) |
| c1cnc2ccc(-c3ccc4ncccc4c3)cc2c1 | 7.7 µg/mL (≈ 30 µM) |
| CC/C(=N\N1CCCCC1)c1c(O)[nH]c(=O)[nH]c1=O | > 39.9 µg/mL |
| NC(=O)C1CCN(CC(=O)Nc2cccnc2Cl)CC1 | 44.1 µg/mL (≈ 149 µM) |
| O=S(=O)(N1CCOCC1)N1CCOCC1 | > 35.4 µg/mL |
| CN1CCCN(C(=O)c2ccccc2Cl)CC1 | > 37.9 µg/mL |
| Oc1ccc(Br)cc1CNc1nccs1 | 4.4 µg/mL (≈ 15.4 µM) |
| CCOC(=O)c1ccc(S(=O)(=O)Nc2cc(S(=O)(=O)Nc3ccc(OC)cc3)ccc2O)cc1 | 72.8 µg/mL (≈ 144 µM) |
| CC(NC(=O)Nc1ccc(Cl)cc1)c1ccc2c(c1)OCO2 (stereo not drawn) | 2.8 µg/mL (≈ 8.78 µM) |
| O=[N+]([O-])c1cccc(-c2ncc3ccccn23)c1 | 19.1 µg/mL (≈ 79.8 µM) |
| COc1ccc(C(CNc2ncnc3sccc23)N(C)C)cc1OC (stereo not drawn) | 35.5 µg/mL (≈ 99 µM) |
| Cc1ccc(CNC(=O)C2CC=CCC2C(=O)O)cc1 (stereo not drawn) | > 41 µg/mL |
| NC(=O)C1CCN(CC(=O)Nc2nccs2)CC1 | 38.4 µg/mL (≈ 143 µM) |
| COc1ccc(S(=O)(=O)Nc2ncccc2C)c2ccccc12 | 37.6 µg/mL (≈ 114 µM) |
| O=[N+]([O-])c1ccc2nc(N3CCCC3)sc2c1 | 2.8 µg/mL (≈ 11.2 µM) |

| SMILES | solubility kinetic |
| --- | --- |
| CNC(=S)N(CCc1c(C)[nH]c2ccc(Cl)cc12)Cc1cccnc1 | 46.2 µg/mL (≈ 124 µM) |
| CCOC(=O)c1cccc(C(=O)Nc2nc3ccc(OC)cc3s2)n1 | < 0.3 µg/mL |
| Cn1c(SCc2ccc(Br)cc2)nc2c(c1=O)SCC2 | < 0.4 µg/mL |
| CC1CCN(C(=O)c2ccc(NC(=O)c3cccs3)cc2)CC1 | 44.7 µg/mL (≈ 136 µM) |
| N#Cc1cc([N+](=O)[O-])ccc1NC(=O)COC(=O)c1cnccn1 | > 49.1 µg/mL |
| COc1ccc(OC)c(C(=O)c2ccccn2)c1 | > 36.5 µg/mL |
| CC(C)(C)NC(=O)c1ccc(COc2ccc(Cl)cc2Cl)o1 | 5 µg/mL (≈ 14.6 µM) |
| Cl.c1ccc(Cc2ccc(OCCn3ccnc3)cc2)cc1 | 41.3 µg/mL |
| O=C(COC(=O)c1cc2ccccc2cc1O)NCc1ccccc1 | 3 µg/mL (≈ 8.95 µM) |
| O=C1CSC(c2ccccn2)N1c1ccccc1F (stereo not drawn) | 40.6 µg/mL (≈ 148 µM) |
| Cc1nc(NC(=O)C2CC2)sc1C(=O)Nc1ccccc1Cl | 2.1 µg/mL (≈ 6.25 µM) |
| Cc1ccc(NC(=O)c2ccc([N+](=O)[O-])o2)c(C)c1 | > 39 µg/mL |
| COc1ccc(N2CC(C(=O)N3CCN(C)CC3)CC2=O)cc1 (stereo not drawn) | 43.8 µg/mL (≈ 138 µM) |
| Cc1ccccc1OC(C)C(=O)N1CCN(c2ccccn2)CC1 (stereo not drawn) | > 48.8 µg/mL |
| CCN1CCN(C(=O)N(c2ccccc2)c2ccccc2)CC1 | > 46.4 µg/mL |
| CCC(C)Nc1nc2c(c(=O)[nH]c(=O)n2C)n1CCCc1ccccc1 (stereo not drawn) | 36.9 µg/mL (≈ 104 µM) |
| Cc1ccc(C)c(NC(=S)NCCc2cnc[nH]2)c1 | 36.8 µg/mL (≈ 134 µM) |
| Cl.ClCCN1C2=NCCCN2c2ccccc21 | > 40.8 µg/mL |
| Cc1noc2ncnc(Oc3cc(Cl)ccc3Cl)c12 | < 0.2 µg/mL |
| CCOC(=O)c1cnc2c(C)cccc2c1Nc1cccc(C(=O)O)c1.Cl | > 58 µg/mL |
| CCOc1ccc(/C=C2\SC(=S)N(C)C2=O)cc1OC | < 0.7 µg/mL |
| COc1ccc2c(CC(=O)Nc3ccc(N4CCOCC4)cc3)coc2c1 | 5.4 µg/mL (≈ 14.7 µM) |
